For test [1], the target named is human adenosine A2B receptor (Homo sapiens (Human), UniProt P29275). The test is described as follows: Adenosine A2B Receptor Cyclic AMP GS Assay. The following applies: HEK-293 cells expressing human A2B receptor; agonist NECA at 12 nM; cAMP accumulation (FRET); read-out: A2B_cAMP_EC50. Type of test: cell-based. The method in brief:
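HEK-293 cells stably expressing human A2B receptor were pretreated 30 min at room temperature with compound, then stimulated with 12 nM NECA for 60 min. cAMP accumulation was measured by HTRF (665/620 ratio). Values were fitted from percent of control versus log concentration.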

The next test concerns the target Adenosine A2A receptor (Homo sapiens (Human), UniProt P29274). The test is described as follows: A2A Tag-lite HTRF Assay. The following applies: Tag-lite Adenosine A2A labeled cells; A2A Receptor Red antagonist fluorescent ligand 12.5 nM; one-site competitive binding model; read-out: A2A_Ki. An excerpt:
The final concentration of DMSO was 1%.

Where only a bound is given, the exact number is not on record here.

Sequence of Adenosine A2A receptor (P29274 whole entry): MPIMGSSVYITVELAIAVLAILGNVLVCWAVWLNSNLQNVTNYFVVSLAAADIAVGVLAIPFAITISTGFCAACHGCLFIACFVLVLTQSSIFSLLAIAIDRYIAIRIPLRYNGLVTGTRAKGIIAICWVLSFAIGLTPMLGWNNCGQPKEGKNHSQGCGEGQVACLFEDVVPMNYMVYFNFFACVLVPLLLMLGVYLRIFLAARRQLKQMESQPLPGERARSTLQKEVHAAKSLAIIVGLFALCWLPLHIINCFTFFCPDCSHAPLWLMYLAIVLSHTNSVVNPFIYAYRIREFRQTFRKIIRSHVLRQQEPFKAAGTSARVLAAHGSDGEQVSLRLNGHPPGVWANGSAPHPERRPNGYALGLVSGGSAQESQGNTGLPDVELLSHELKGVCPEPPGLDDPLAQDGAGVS
Sequence of human adenosine A2B receptor (P29275 whole entry): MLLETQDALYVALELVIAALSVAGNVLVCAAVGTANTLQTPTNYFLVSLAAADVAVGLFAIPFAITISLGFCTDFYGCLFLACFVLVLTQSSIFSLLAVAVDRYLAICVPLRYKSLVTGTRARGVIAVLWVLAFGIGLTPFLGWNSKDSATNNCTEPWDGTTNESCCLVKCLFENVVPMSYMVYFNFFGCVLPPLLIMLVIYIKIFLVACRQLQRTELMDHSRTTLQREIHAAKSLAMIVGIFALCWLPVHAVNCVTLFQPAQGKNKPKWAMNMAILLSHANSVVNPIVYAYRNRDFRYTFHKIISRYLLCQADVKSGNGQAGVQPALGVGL

Turning to `CCn1nccc1-c1c(-c2cccc(C#N)c2)nc(N)n2nc(C3(c4ccccc4)CC3)nc12` [Example 67, 3-(5-Amino-8-(1-ethyl-1H-pyrazol-5-yl)-2-(1-phenylcyclopropyl)-[1,2,4]triazolo[1,5-c]pyrimidin-7-yl)benzonitrile], the EC50 in test [1] was in the range of 100 to 1000 nM. In addition, the Ki at Adenosine A2A receptor was < 10 nM.

As for `N#Cc1cccc(-c2nc(Nc3ncccc3C#N)n3nc(C(O)c4ccccc4)nc3c2-c2ccncn2)c1` (stereo not shown) [Example 68, 2-((7-(3-Cyanophenyl)-2-(hydroxy(phenyl)methyl)-8-(pyrimidin-4-yl)-[1,2,4]triazolo[1,5-c]pyrimidin-5-yl)amino)nicotinonitrile], the EC50 in test [1] was 100 to 1000 nM. Moreover, the Ki on Adenosine A2A receptor was < 10 nM.

`N#Cc1cccc(-c2nc(N)n3nc(NC(C#N)c4ccccc4)nc3c2-c2ccncn2)c1` (stereo not shown) [Example 69, 3-(5-Amino-2-((cyano(phenyl)methyl)amino)-8-(pyrimidin-4-yl)-[1,2,4]triazolo[1,5-c]pyrimidin-7-yl)benzonitrile]: the EC50 in test [1] lay in the range of 10 to 100 nM. In addition, the Ki on Adenosine A2A receptor is < 10 nM.

Regarding `N#Cc1cccc(-c2nc(N)n3nc(C4CCOC4)nc3c2-c2ccncc2)c1` (stereo not shown) [Example 70, 3-(5-Amino-8-(pyridin-4-yl)-2-(tetrahydrofuran-3-yl)-[1,2,4]triazolo[1,5-c]pyrimidin-7-yl)benzonitrile], the EC50 in test [1] lay in the range of 10 to 100 nM. The Ki at Adenosine A2A receptor is < 10 nM.

Consider `N#Cc1cccc(-c2nc(N)n3nc(C(Oc4ccccn4)c4ccccc4)nc3c2-c2ccncn2)c1` (stereo not shown) [Example 71, 3-(5-Amino-2-(phenyl(pyridin-2-yloxy)methyl)-8-(pyrimidin-4-yl)-[1,2,4]triazolo[1,5-c]pyrimidin-7-yl)benzonitrile], for which the EC50 in test [1] is 10 to 100 nM. For the same molecule, at Adenosine A2A receptor, the Ki is < 10 nM.

Turning to `N#Cc1cccc(-c2nc(N)n3nc(Cc4c(F)cccc4CN4C[C@@H](O)[C@H](F)C4)nc3c2-c2ccncn2)c1` [Example 72, 3-(5-Amino-2-(2-fluoro-6-(((3R,4R)-3-fluoro-4-hydroxypyrrolidin-1-yl)methyl)benzyl)-8-(pyrimidin-4-yl)-[1,2,4]triazolo[1,5-c]pyrimidin-7-yl)benzonitrile], in test [1], the EC50 lay in the range of 10 to 100 nM. On Adenosine A2A receptor, the Ki was < 10 nM.

On to `N#Cc1cccc(-c2nc(N)n3nc(Cc4c(F)cccc4CN4CCC(C(=O)O)CC4)nc3c2-c2ccncn2)c1` [Example 73, 1-(2-((5-Amino-7-(3-cyanophenyl)-8-(pyrimidin-4-yl)-[1,2,4]triazolo[1,5-c]pyrimidin-2-yl)methyl)-3-fluorobenzyl)piperidine-4-carboxylic acid], for which the EC50 in test [1] fell in the range of 10 to 100 nM. Besides, the Ki on Adenosine A2A receptor is < 10 nM.

With `CN(Cc1cccc(F)c1Cc1nc2c(-c3ccncn3)c(-c3cccc(C#N)c3)nc(N)n2n1)S(C)(=O)=O` [Example 74, N-(2-((5-Amino-7-(3-cyanophenyl)-8-(pyrimidin-4-yl)-[1,2,4]triazolo[1,5-c]pyrimidin-2-yl)methyl)-3-fluorobenzyl)-N-methylmethanesulfonamide], the EC50 in test [1] was < 10 nM. For the same molecule, on Adenosine A2A receptor, the Ki is < 10 nM.

`N#Cc1cccc(-c2nc(N)n3nc(Cc4c(F)cccc4CN4C(=O)CNC4=O)nc3c2-c2ccncn2)c1` [Example 75, 3-(5-Amino-2-(2-((2,5-dioxoimidazolidin-1-yl)methyl)-6-fluorobenzyl)-8-(pyrimidin-4-yl)-[1,2,4]triazolo[1,5-c]pyrimidin-7-yl)benzonitrile]: the EC50 in test [1] was < 10 nM. In addition, on Adenosine A2A receptor, the Ki was < 10 nM.

As to `Cc1cc(C(F)(F)F)nn1Cc1nc2c(-c3ccncn3)c(-c3cccc(C#N)c3)nc(N)n2n1` [Example 81, 3-(5-Amino-2-((5-methyl-3-(trifluoromethyl)-1H-pyrazol-1-yl)methyl)-8-(pyrimidin-4-yl)-[l*2,4]triazolo[1,5-c]pyrimidin-7-yl)benzonitrile], the EC50 in test [1] was < 10 nM. Moreover, the Ki at Adenosine A2A receptor was < 10 nM.

For `CCc1ncoc1-c1c(-c2cccc(C#N)c2)nc(N)n2nc(Cc3ccccn3)nc12` [Example 82, 3-(5-Amino-8-(4-ethyloxazol-5-yl)-2-(pyridin-2-ylmethyl)-[1,2,4]triazolo[1,5-c]pyrimidin-7-yl)benzonitrile], the EC50 in test [1] is < 10 nM. On Adenosine A2A receptor, the Ki is < 10 nM.

Turning to `CCn1nncc1-c1c(-c2cccc(C#N)c2)nc(N)n2nc(Cc3ccccn3)nc12` [Example 83, 3-(5-Amino-8-(1-ethyl-1H-1,2,3-triazol-5-yl)-2-(pyridin-2-ylmethyl)-[1,2,4]triazolo[1,5-c]pyrimidin-7-yl)benzonitrile], the EC50 in test [1] fell in the range of 10 to 100 nM. Further, the Ki at Adenosine A2A receptor was < 10 nM.

As to `Cc1cccnc1Cc1nc2c(-c3ocnc3C)c(-c3cccc(C#N)c3)nc(N)n2n1` [Example 84, 3-(5-Amino-8-(4-methyloxazol-5-yl)-2-((3-methylpyridin-2-yl)methyl)-[1,2,4]triazolo[1,5-c]pyrimidin-7-yl)benzonitrile], the EC50 in test [1] is < 10 nM. Further, on Adenosine A2A receptor, the Ki was < 10 nM.

In the case of `Cc1nc(CO)c(-c2c(-c3cccc(C#N)c3)nc(N)n3nc(Cc4ncccc4F)nc23)o1` [Example 85, 3-(5-Amino-2-((3-fluoropyridin-2-yl)methyl)-8-(4-(hydroxymethyl)-2-methyloxazol-5-yl)-[1,2,4]triazolo[1,5-c]pyrimidin-7-yl)benzonitrile], the EC50 in test [1] is < 10 nM. Moreover, the Ki at Adenosine A2A receptor is < 10 nM.

`N#Cc1cccc(-c2nc(N)n3nc(Cc4c(F)cccc4CN4CCCS4(=O)=O)nc3c2-c2ccncn2)c1` [Example 86, 3-(5-Amino-2-(2-((1,1-dioxidoisothiazolidin-2-yl)methyl)-6-fluorobenzyl)-8-(pyrimidin-4-yl)-[1,2,4]triazolo[1,5-c]pyrimidin-7-yl)benzonitrile]: the EC50 in test [1] was < 10 nM. For the same molecule, the Ki on Adenosine A2A receptor was < 10 nM.

Take `CN1CC(=O)N(Cc2cccc(F)c2Cc2nc3c(-c4ccncn4)c(-c4cccc(C#N)c4)nc(N)n3n2)C1=O` [Example 87, 3-(5-Amino-2-(2-fluoro-6-((3-methyl-2,5-dioxoimidazolidin-1-yl)methyl)benzyl)-8-(pyrimidin-4-yl)-[1,2,4]triazolo[1,5-c]pyrimidin-7-yl)benzonitrile]: in test [1], the EC50 was < 10 nM. Further, at Adenosine A2A receptor, the Ki was < 10 nM.

`N#Cc1cccc(-c2nc(N)n3nc(Cc4ncccc4F)nc3c2-c2ccncn2)c1` [Example 88, 3-(5-Amino-2-((3-fluoropyridin-2-yl)methyl)-8-(pyrimidin-4-yl)-[1,2,4]triazolo[1,5-c]pyrimidin-7-yl)benzonitrile]: the EC50 in test [1] is < 10 nM. For the same molecule, the Ki on Adenosine A2A receptor is < 10 nM.

`Cc1ncoc1-c1c(-c2cccc(C#N)c2)nc(N)n2nc(Cc3cccc(C(F)(F)F)n3)nc12` [Example 89, 3-(5-Amino-8-(4-methyloxazol-5-yl)-2-((6-(trifluoromethyl)pyridin-2-yl)methyl)-[1,2,4]triazolo[1,5-c]pyrimidin-7-yl)benzonitrile]: in test [1], the EC50 is < 10 nM. Besides, the Ki at Adenosine A2A receptor is < 10 nM.

As for `Cc1ncoc1-c1c(-c2cccc(C#N)c2F)nc(N)n2nc(Cc3ccccn3)nc12` [Example 90, 3-(5-Amino-8-(4-methyloxazol-5-yl)-2-(pyridin-2-ylmethyl)-[1,2,4]triazolo[1,5-c]pyrimidin-7-yl)-2-fluorobenzonitrile], in test [1], the EC50 was < 10 nM. Also, the Ki at Adenosine A2A receptor is < 10 nM.

`Cc1ncoc1-c1c(-c2cccc(C#N)c2)nc(N)n2nc(Cc3ncccc3CO)nc12` [Example 91, 3-(5-Amino-2-((3-(hydroxymethyl)pyridin-2-yl)methyl)-8-(4-methyloxazol-5-yl)-[1,2,4]triazolo[1,5-c]pyrimidin-7-yl)benzonitrile]: the EC50 in test [1] is < 10 nM. For the same molecule, the Ki on Adenosine A2A receptor is < 10 nM.

With `Cc1ncoc1-c1c(-c2cccc(C#N)c2)nc(N)n2nc(Cc3ccn(C)n3)nc12` [Example 92, 3-(5-Amino-2-((1-methyl-1H-pyrazol-3-yl)methyl)-8-(4-methyloxazol-5-yl)-[1,2,4]triazolo[1,5-c]pyrimidin-7-yl)benzonitrile], the EC50 in test [1] is < 10 nM. The Ki on Adenosine A2A receptor is < 10 nM.

Take `Cn1ccc(Cc2nc3c(-c4cnco4)c(-c4cccc(C#N)c4)nc(N)n3n2)n1` [Example 93, 3-(5-Amino-2-((1-methyl-1H-pyrazol-3-yl)methyl)-8-(oxazol-5-yl)-[1,2,4]triazolo[1,5-c]pyrimidin-7-yl)benzonitrile]: the EC50 in test [1] was < 10 nM. Besides, on Adenosine A2A receptor, the Ki is < 10 nM.

Turning to `Cc1cccnc1COc1nc2c(-c3ccncn3)c(-c3cccc(C#N)c3)nc(N)n2n1` [Example 94, 3-(5-Amino-2-((3-methylpyridin-2-yl)methoxy)-8-(pyrimidin-4-yl)-[1,2,4]triazolo[1,5-c]pyrimidin-7-yl)benzonitrile], in test [1], the EC50 is < 10 nM. Also, the Ki on Adenosine A2A receptor is < 10 nM.

Turning to `Cc1cccc(COc2nc3c(-c4ccncn4)c(-c4cccc(C#N)c4)nc(N)n3n2)n1` [Example 95, 3-(5-Amino-2-((6-methylpyridin-2-yl)methoxy)-8-(pyrimidin-4-yl)-[1,2,4]triazolo[1,5-c]pyrimidin-7-yl)benzonitrile], in test [1], the EC50 was < 10 nM. Besides, the Ki on Adenosine A2A receptor was < 10 nM.

For the molecule `N#Cc1cccc(-c2nc(N)n3nc(COc4ccccc4C#N)nc3c2-c2ccncn2)c1` [Example 96, 2-((5-Amino-7-(3-cyanophenyl)-8-(pyrimidin-4-yl)-[1,2,4]triazolo[1,5-c]pyrimidin-2-yl)methoxy)benzonitrile], the EC50 in test [1] was < 10 nM. In addition, the Ki on Adenosine A2A receptor is < 10 nM.

Regarding `Cc1cccnc1CNc1nc2c(-c3ccncn3)c(-c3cccc(C#N)c3)nc(N)n2n1` [Example 97, 3-(5-Amino-2-(((3-methylpyridin-2-yl)methyl)amino)-8-(pyrimidin-4-yl)-[1,2,4]triazolo[1,5-c]pyrimidin-7-yl)benzonitrile], in test [1], the EC50 is < 10 nM. At Adenosine A2A receptor, the Ki was < 10 nM.

These data come from patent US11673894B2, “Imidazopyrimidines and triazolopyrimidines as A2A / A2B inhibitors” (Incyte Corporation, priority 2018, dated 2023).
